Usually melting point stands for the temperature of the solid-liquid transition.

From patent US6362336B1, “Chemical compounds” (Zeneca Limited, priority 1995, dated 2002) come the findings set out here.

Consider `COc1cc2c(Nc3ccc(C)c(O)c3)ncnc2cc1OCc1ccncc1.Cl`, for which the melting point lay in the range of 249 to 251 °C. The value for `COc1cc2c(Nc3ccc(C)c(O)c3)ncnc2cc1OCc1c(C)noc1C.Cl` was 252 to 254 °C. `COc1cc2c(Nc3ccc(C)c(O)c3)ncnc2cc1OCCCc1ccncc1.Cl` came in with a melting point of 278 to 282 °C.

In turn, `COc1cc2c(Nc3cc(O)c(C)cc3F)ncnc2cc1OCCCc1ccncc1.Cl` had a melting point of 246 to 248 °C.

Consider `COc1cc2c(Nc3cc(O)c(C)cc3F)ncnc2cc1OCc1ccncc1.Cl`, for which the melting point fell in the range of 257 to 260 °C. Next, `COc1cc2c(Nc3cc(O)c(C)cc3F)ncnc2cc1OCc1ccccc1.Cl`: 294 to 298 °C; `COc1cc2c(Nc3ccc(Cl)cc3F)ncnc2cc1OCc1csc(C)n1.Cl`: 220 to 225 °C; `COc1cc2c(Nc3cc(O)c(C)cc3F)ncnc2cc1OCCn1ccnc1.Cl`: 195 to 220 °C. The value for `COc1cc2c(Nc3cc(O)c(C)cc3F)ncnc2cc1OCc1ccc(C#N)cc1.Cl` was 265 to 270 °C; that for `COc1cc2c(Nc3ccc(Cl)cc3F)ncnc2cc1OCCc1ccncc1.Cl` was 189 to 191 °C; that for `COc1cc2c(Nc3ccc(Cl)cc3F)ncnc2cc1OCc1cccnc1.Cl` was 216 to 221 °C. Next, `COc1cc2c(Nc3ccc(C)c(O)c3)ncnc2cc1OCc1ccccn1.Cl`: 236 to 238 °C; `COc1cc2c(Nc3ccc(Cl)cc3F)ncnc2cc1OCCc1nccn1C.Cl`: 224 to 229 °C.

`COc1cc2c(Nc3ccc(Cl)cc3F)ncnc2cc1OCc1ccncn1.Cl` gave a melting point of 237 to 239 °C.

For `COc1cc2c(Nc3ccc(Cl)cc3F)ncnc2cc1OCCCN(C)c1ccncc1.Cl`, the melting point is 243 to 248 °C. Take `COc1cc2c(Nc3ccc(Cl)cc3F)ncnc2cc1OCCN(C)c1ncccn1.Cl`: the melting point was in the range of 194 to 196 °C.

Take `COc1cc2c(Nc3cc(O)c(C)cc3F)ncnc2cc1OCc1ccnc(Cl)c1.Cl`: the melting point lay in the range of 245 to 250 °C. For the compound `COc1cc2c(Nc3ccc(C)c(O)c3)ncnc2cc1OCc1nccn1C.Cl`, the melting point lay within 257 to 260 °C. The value for `COc1cc2c(Nc3ccc(Cl)cc3F)ncnc2cc1OCc1cc(Cl)[nH]c(=O)c1.Cl` was 271 to 273 °C (dec.). Regarding `COc1cc2c(Nc3ccc(C)c(O)c3)ncnc2cc1OCc1csc(C)n1.Cl`, the melting point was in the range of 243 to 245 °C. The value for `Cl.Oc1cc(Nc2ncnc3cc(OCc4ccccc4)ccc23)c(F)cc1Cl` was 253 to 257 °C. For the compound `COc1cc2c(Nc3cc(O)c(Cl)cc3F)ncnc2cc1OCc1ccsc1.Cl`, the melting point lay within 277 to 281 °C. The value for `COc1cc2c(Nc3ccc(C)c(O)c3)ncnc2cc1OCc1ccsc1.Cl` was 246 to 248 °C. With `COc1cc2c(Nc3ccc(Cl)cc3F)ncnc2cc1OCc1csc(NC(C)=O)n1.Cl`, the melting point lay in the range of 194 to 202 °C. Next, `COc1cc2c(Nc3ccc(C)c(O)c3)ncnc2cc1OCc1csc(NC(C)=O)n1.Cl`: 202 to 204 °C.

Take `COc1cc2c(Nc3ccc(Cl)cc3F)ncnc2cc1OCc1ccnc(N(C)C)c1.Cl`: the melting point was determined as 290 °C. The value for `COc1cc2c(Nc3ccc(C)c(OC(C)=O)c3)ncnc2cc1OCc1cccnc1` [Example 2, 4-(3-acetoxy-4-methylanilino)-6-methoxy-7-(3-pyridylmethoxy)quinazoline] was 113 to 115 °C. Next, `COc1cc2c(Nc3ccc(C)c(O)c3)ncnc2cc1OCc1cccnc1` [Example 3, 4-(3-hydroxy-4-methylanilino)-6-methoxy-7-(3-pyridylmethoxy)quinazoline]: 258 to 259 °C; `COc1cc2c(Nc3ccc(C)c(O)c3)ncnc2cc1OCc1ccncn1` [Example 5, 4-(3-hydroxy-4-methylanilino)-6-methoxy-7-(pyrimidin-4-ylmethoxy)quinazoline]: 290 to 291 °C. The value for `COc1cc2c(Nc3ccc(Cl)cc3F)ncnc2cc1OCCOc1ccncc1` [Example 17, 4-(4-chloro-2-fluoroanilino)-6-methoxy-7-(2-(4-pyridyloxy)ethoxy)quinazoline] was 200 to 202 °C; that for `COc1cc2c(Nc3ccc(Cl)cc3F)ncnc2cc1OCCn1ccccc1=O` [Example 18, 4-(4-chloro-2-fluoroanilino)-6-methoxy-7-[2-(2-oxo-1,2-dihydro-1-pyridyl)ethoxy]quinazoline] was 209 to 211 °C; that for `COc1cc2c(Nc3ccc(Cl)cc3F)ncnc2cc1OCCCn1ccc(=O)cc1` [Example 19, 4-(4-chloro-2-fluoroanilino)-6-methoxy-7-[3-(4-oxo-1,4-dihydro-1-pyridyl)propoxy]quinazoline] was above 250 °C.

Compound `COc1cc2c(Nc3ccc(Cl)cc3F)ncnc2cc1OCc1ccccn1` [Example 39, 4-(4-chloro-2-fluoroanilino)-6-methoxy-7-((2-pyridyl)methoxy)quinazoline] had a melting point of 215 to 218 °C. The value for `COc1cc2c(Oc3ccc(Cl)cc3F)ncnc2cc1OCc1ccncc1` [Example 44, 4-(4-chloro-2-fluorophenoxy)-6-methoxy-7-((4-pyridyl)methoxy)quinazoline] was 197 to 198 °C; that for `COc1cc2c(Nc3ccc(Cl)cc3F)ncnc2cc1OCCN(C)c1cc(C)nc(C)c1` [Example 46, 4-(4-chloro-2-fluoroanilino)-7-(2-(N-(2,6-dimethyl-4-pyridyl)-N-methylamino)ethoxy)-6-methoxyquinazoline] was 208 to 212 °C. Next, `COc1cc2c(Nc3ccc(Cl)cc3F)ncnc2cc1OCc1ccnc(Br)c1` [Example 59, 7-((2-bromo-4-pyridyl)methoxy)-4-(4-chloro-2-fluoroanilino)-6-methoxyquinazoline]: 210 to 212 °C; `COc1cc2c(Nc3ccc(Cl)cc3F)ncnc2cc1OCc1ccnc(C#N)c1` [Example 60, 4-(4-chloro-2-fluoroanilino)-7-((2-cyano-4-pyridyl)methoxy)-6-methoxyquinazoline]: 209 to 213 °C; `COc1cc(COc2cc3ncnc(Nc4ccc(Cl)cc4F)c3cc2OC)ccn1` [Example 62, 4-(4-chloro-2-fluoroanilino)-7-((2-methoxy-4-pyridyl)methoxy)-6-methoxyquinazoline]: 202 to 204 °C.

Take `COc1cc2c(Nc3ccc(Cl)cc3F)ncnc2cc1OCc1ccnc(C)c1` [Example 63, 4-(4-chloro-2-fluoroanilino)-6-methoxy-7-((2-methyl-4-pyridyl)methoxy)quinazoline]: the melting point was 221 to 224 °C.

With `COc1cc2c(Nc3ccc(Cl)cc3F)ncnc2cc1OCCCn1ccccc1=O` [Example 65, 4-(4-chloro-2-fluoroanilino)-6-methoxy-7-(3-(2-oxo-1,2-dihydro-1-pyridyl)propoxy)quinazoline], the melting point lay within 216 to 218 °C. Next, `COc1cc2c(Nc3ccc(Cl)cc3F)ncnc2cc1OCCCSc1nccn1C` [Example 66, 4-(4-chloro-2-fluoroanilino)-6-methoxy-7-(3-(1-methylimidazol-2-ylthio)propoxy)quinazoline]: 199 to 201 °C; `COc1cc2c(Nc3ccc(Cl)cc3F)ncnc2cc1OCCCOc1ccncc1` [Example 67, 4-(4-chloro-2-fluoroanilino)-6-methoxy-7-(3-(4-pyridyloxy)propoxy)quinazoline]: 138 to 140 °C; `COc1cc2c(Nc3ccc(Cl)cc3F)ncnc2cc1OCCSc1ccncc1` [Example 68, 4-(4-chloro-2-fluoroanilino)-6-methoxy-7-(2-(4-pyridylthio)ethoxy)quinazoline]: 182 to 186 °C. The value for `COc1cc2c(Nc3ccc(Cl)cc3F)ncnc2cc1OCCOc1cccnc1` [Example 69, 4-(4-chloro-2-fluoroanilino)-6-methoxy-7-(2-(3-pyridyloxy)ethoxy)quinazoline] was 188 to 190 °C; that for `CCOC(=O)c1cc(COc2cc3ncnc(Nc4ccc(Cl)cc4F)c3cc2OC)ccn1` [Example 93, 4-(4-chloro-2-fluoroanilino)-7-(2-ethoxycarbonylpyrid-4-yl)methoxy-6-methoxyquinazoline] was 212 to 214 °C.
